Test results as given in patent US8569481B2, “Capture compounds, collections thereof and methods for analyzing the proteome and complex compositions” (Pharmaceuticals, Inc., priority 2001, dated 2013).

Molecular target: Cytochrome C (Bos taurus, UniProt P62894)
Assay: Time course reaction of cytochrome C with a non-specific capture compound, analyzed by MALDI-TOF mass spectrometry
Format: binding
Excerpt: Four different capture compounds (designated HKC 1341 (2,5-dioxopyrrolidin-1-yl acetate), HKC 1343 (2,5-dioxopyrrolidin-1-yl 4-(hydroxybis(4-methoxyphenyl)methyl)benzoate), HKC 1349 (1-(4-((3-(2-hydroxyethoxy)phenyl)(phenyl)(3-phenylpropoxy)methyl)benzoyl)-1H-pyrrole-2,5-dione), and HKC 1365 (3-((4-((2,5-dioxopyrrolidin-1-yloxy)carbonyl)phenyl)diphenylmethoxy)propane-1,2-diyl dipalmitate)) were reacted individually with Cytochrome C (accession number: P00006, FIG. 20c). The capture experiments were analyzed using MALDI-TOF Mass Spectrometry. Binding was performed in 20 μL sample volumes with 5 μM Cytochrome C concentrations in 25 mM HEPES buffer solution, pH 7.0. The trityl-based capture compounds were added to the protein solution at a 10 μM concentration. […] The reaction was quenched using 1 μL of a 100 mM TRIZMA base solution. The capture compound-protein binding mixture was prepared for mass spectrometry analysis by mixing a 1 μL aliquot of the binding reaction with 1 μL of a 10 mg/mL sinapinic acid in 30% aqueous acetonitrile. The sample was deposited as a […] spot on the surface of mass target plates and subsequently air-dried before mass spectrometric analyses.

Cytochrome C, sequence (P62894 whole entry): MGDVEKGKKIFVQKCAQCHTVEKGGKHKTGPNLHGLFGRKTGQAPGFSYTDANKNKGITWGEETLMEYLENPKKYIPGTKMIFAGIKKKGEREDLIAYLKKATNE

## CC(=O)ON1C(=O)CCC1=O [HKC 1341, 2,5-dioxopyrrolidin-1-yl acetate]
After 30 minutes (middle spectrum, FIG. 20f)
  modifications of cytochrome C resulting from binding of the capture compound: 1-9
Time 0 (top spectrum, FIG. 20f)
  modifications of cytochrome C resulting from binding of the capture compound: no modification
